Source: a compilation of properties of binary mixtures (doi:10.1016/j.molliq.2016.09.077)

Experiment: xn = mol fraction of the nth substance listed
Settings: 100 kPa

CC[n+]1ccn(C)c1.O=S(=O)([N-]S(=O)(=O)C(F)(F)F)C(F)(F)F + CO
Settings | speed of sound [m/s] | viscosity [mPa·s]
298.15 K, x2 = 0 | 1240.2 | 32.49
298.15 K, x2 = 0.0938 | 1236.3 | 26.33
298.15 K, x2 = 0.1965 | 1231.5 | 20.39
298.15 K, x2 = 0.2889 | 1225.3 | 15.83
298.15 K, x2 = 0.4005 | 1217.3 | 11.82
298.15 K, x2 = 0.5088 | 1207.8 | 8.77
298.15 K, x2 = 0.6909 | 1177.9 | 4.64
298.15 K, x2 = 0.7961 | 1159.9 | 2.86
298.15 K, x2 = 0.8978 | 1132.9 | 1.55
303.15 K, x2 = 0 | 1229.3 | 27.68
303.15 K, x2 = 0.0938 | 1225.2 | 22.39
303.15 K, x2 = 0.1965 | 1220.1 | 17.79
303.15 K, x2 = 0.2889 | 1214.2 | 13.73
303.15 K, x2 = 0.4005 | 1206.3 | 10.47
303.15 K, x2 = 0.5088 | 1196.7 | 7.7
303.15 K, x2 = 0.5988 | 1183.4 | 5.82
303.15 K, x2 = 0.6909 | 1166.9 | 4.25
303.15 K, x2 = 0.7961 | 1147.4 | 2.61
303.15 K, x2 = 0.8978 | 1120.1 | 1.43
308.15 K, x2 = 0 | 1218.5 | 23.29
308.15 K, x2 = 0.0938 | 1214.6 | 19.27
308.15 K, x2 = 0.1965 | 1208.9 | 15.16
308.15 K, x2 = 0.2889 | 1203.2 | 12.01
308.15 K, x2 = 0.5088 | 1185.5 | 6.82
308.15 K, x2 = 0.5988 | 1172.4 | 5.22
308.15 K, x2 = 0.6909 | 1154.9 | 3.84
308.15 K, x2 = 0.7961 | 1135.5 | 2.37
313.15 K, x2 = 0 | 1207.9 | 20.16
313.15 K, x2 = 0.0938 | 1203.9 | 16.71
313.15 K, x2 = 0.1965 | 1197.9 | 13.25
313.15 K, x2 = 0.2889 | 1192.3 | 10.57
313.15 K, x2 = 0.5988 | 1161.2 | 4.65
313.15 K, x2 = 0.7961 | 1122.7 | 2.16
313.15 K, x2 = 0.8978 | 1094.6 | 1.22
318.15 K, x2 = 0 | 1197.3 | 17.48
318.15 K, x2 = 0.0938 | 1193.3 | 14.63
318.15 K, x2 = 0.2889 | 1181.6 | 9.38
318.15 K, x2 = 0.4005 | 1173.4 | 7.26
318.15 K, x2 = 0.5088 | 1163.5 | 5.47
318.15 K, x2 = 0.5988 | 1150.2 | 4.22
318.15 K, x2 = 0.6909 | 1131.2 | 3.13
318.15 K, x2 = 0.7961 | 1110.4 | 1.98
318.15 K, x2 = 0.8978 | 1082 | 1.13
323.15 K, x2 = 0 | 1187 | 15.34
323.15 K, x2 = 0.0938 | 1182.8 | 12.94
323.15 K, x2 = 0.1965 | 1176.2 | 10.42
323.15 K, x2 = 0.2889 | 1170.9 | 8.38
323.15 K, x2 = 0.4005 | 1162.8 | 6.56
323.15 K, x2 = 0.5088 | 1152.6 | 4.94
323.15 K, x2 = 0.5988 | 1139.3 | 3.86
323.15 K, x2 = 0.6909 | 1119.6 | 2.87
323.15 K, x2 = 0.8978 | 1069.4 | 1.05
